Measured values published in US11597728B2, “Monoacylglycerol lipase modulators” (Janssen Pharmaceutica NV, priority 2018, dated 2023).

Biological target: human MGL from HeLa cells (Homo sapiens (Human), UniProt Q99685)
Assay: In vitro MGL activity assay: cleavage of [glycerol-1,3-3H]-oleoyl glycerol, activated carbon filtration
Format: biochemical

human MGL from HeLa cells, sequence (Q99685 whole entry): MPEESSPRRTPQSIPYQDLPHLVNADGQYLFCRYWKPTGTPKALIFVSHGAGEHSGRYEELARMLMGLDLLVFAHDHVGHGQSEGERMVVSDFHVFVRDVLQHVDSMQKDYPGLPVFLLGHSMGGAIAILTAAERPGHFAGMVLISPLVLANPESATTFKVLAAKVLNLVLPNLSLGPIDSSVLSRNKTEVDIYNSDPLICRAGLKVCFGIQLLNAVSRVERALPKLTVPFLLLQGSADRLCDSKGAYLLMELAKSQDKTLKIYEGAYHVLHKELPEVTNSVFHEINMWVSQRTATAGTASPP

Cn1nc2c(c1-c1ccc(F)c(F)c1)C[C@H]1CCC[C@@H]2N1C(=O)c1ccccc1-n1nccn1 [Example 126, (2-(2H-1,2,3-Triazol-2-yl)phenyl)((5R,9S)-3-(3,4-difluorophenyl)-2-methyl-4,5,6,7,8,9-hexahydro-2H-5,9-epiminocycloocta[c]pyrazol-10-yl)methanone]
IC50: 7.44 nM
